{
  "source": "patent US6894161B2",
  "about": "“Methods and compositions for photo-cross linking photoactive compounds to target tissue” (The University of British Columbia, priority 2001, dated 2005)",
  "test": "Cyclic voltammetry, redox potentials",
  "type": "physicochemical",
  "conditions": "dichloromethane at 22° C. versus Fc",
  "description": "Without being bound by theory, it is believed that the observed photochemical reaction with long wavelength light is not the result of intramolecular energy transfer from the porphyrin to the pyrazoline because estimations indicate that it would be an extremely endothermic process. With respect to the possibility that a photoinduced electron transfer may be responsible, it is first noted that there is no precedence for this reaction with pyrazolines. If the porphyrin and pyrazoline are considered as separate molecules, however, the estimation of the feasibility of an electron transfer process may be conducted as follows. Generally, a photochemical electron transfer occurs only when it is exergonic or <5 kcal mol^−1 endergonic (Eberson, L. Electron Transfer Reactions in Organic Chemistry, Springer-Verlag: Berlin Germany, 1987). The free energy change for a photoinduced electron transfer can be determined from the oxidation potential of the electron donor (E°D), the reduction potential of the electron acceptor (E°A) and the excited state energy of the sensitizer (E0,0), using the relationship ΔGET=23.06 kcal mol^−1[(E°D−E°A)−E0,0]−C; where C is a term that accounts for solvation. In order to estimate the feasibility of electron transfer using this relationship, the redox properties of the molecules must be known. The starting materials MePPP (18), the pyrazoline (19), and the photoproduct cyclopropane (20) have reduction and oxidation potentials as shown in Table 2.\nThe radical anions and dianions are therefore stable on the time scale of these experiments, with no chemistry occurring on addition of electrons to these molecules. If any chemical reactions were occurring from the radical anion or dianion, the CV's would be irreversible. […] On reduction, two consecutive electrons are accepted by the porphyrin macrocycle in each of 18, 19 and 20. The oxidations are also reversible; the only notable feature of the oxidation potentials is that 19 and 20 are somewhat easier to oxidize than MePPP. […]",
  "data": [
    {"smiles": "C=Cc1c(C)c2cc3nc(c4c5[nH]c(cc6nc(cc1[nH]2)C(C)=C6CC)c(C)c5C(=O)C4)C(CCC(=O)OC)C3C", "note": "(stereo not drawn) [Compound 18, Methylpyropheophorbide]", "values": [
      {"measurement": "Oxidation 1 (redox potential)", "result": 0.61},
      {"measurement": "Reduction 1 (redox potential)", "result": "−1.47"},
      {"measurement": "Reduction 2 (redox potential)", "result": "−1.73"}
    ]}
  ]
}
